Source: patent publication US7319103B2, “Non-imidazole tertiary amines as histamine 3 receptor inhibitors for the treatment of cognitive and sleep disorders, obesity and other CNS disorders” (Athersys, Inc., priority 2004, dated 2008)

Key:
[1] = molecular target: mouse H3 receptor (Mus musculus, UniProt P58406); test: Radioligand competition binding assay, mouse H3 receptor; settings: competition binding vs [3H]Nα-methylhistamine (~2 nM), membranes of cells expressing mouse H3 receptor
Protocol: (§1) Representative compounds of the present invention that were prepared by the procedures of the Examples were evaluated in binding assays against cells expressing the mouse and human H3 receptor by the following procedure.
(§2) Cells were washed with cold PBS buffer twice, scraped off the plates, and centrifuged at 1000×g for 5 minutes. Cells were resuspended in ice-cold buffer of 10 mM Tris, pH 7.4, 5 mM EDTA, protease inhibitor cocktail tablets (Roche Molecular Biochemicals) and incubated on ice for 10 minutes. The mixture was then homogenized with a dounce homogenizer or a polytron tissue grinder and centrifuged at 1000×g for 10 min at 4° C. The supernatant was centrifuged at 32,000×g for 30 min at 4° C. The membrane pellet was resuspended in a buffer of 50 mM Tris, pH 7.4 with protease inhibitor cocktail tablets and stored at −80° C. until use. Protein concentration was determined by the methods of Bradford.
(§3) Membranes were homogenized in buffer containing 50 mM Tris/HCl, 1 mM EDTA pH 7.4, and protease inhibitor cocktail tablets. Dissociation constants of radioligand (KD values) and maximum binding sites (Bmax) were determined in saturation binding experiments. Ki and IC50 were determined in competition binding assays using a fixed amount of radioligand.
(§4) Saturation binding assays were carried out in 96-well polypropylene plates in triplicate or quadruplicate. Reaction mixtures contained 100 μl of membrane suspension (˜100 μg/well), 50 μl of 4% DMSO, 50 μl of increasing amounts of [^3H]N^α-methylhistamine (final concentration of 0.01-20 nM). Nonspecific binding was defined with 10 uM clobenpropit. Competition binding assays were performed in a reaction mixture containing 100 μl of membrane suspension, 50 μl of [H]N^α-methylhistamine (final concentration of ˜2 nM), and 50 μl compounds. […] Incubations were carried out for 1.5 hours at room temperature. Reactions were terminated by rapid filtration over glass fibre GF/C filters (Perkin Elmers, MA) that had been presoaked in 0.3% PEI, using a Brandel cell harvester. The filters were washed with 500 ml of ice-cold buffer containing 50 mM Tris-HCl, pH 7.4, and were subsequently dried, impregnated with Meltilex wax scintillate (Perkin Elmers, MA) and counted with a Betaplate scintillation counter (Perkin Elmers, MA).
(§5) All data were analyzed by nonlinear least square curve fitting using Prism 4.0 software. The KD for [^3H]N^α-methylhistamine and the Bmax were derived from equation RL=RfL/(KD+L). RL is concentration of receptor-bound ligand at equilibrium, L is the free ligand concentration, Rf is the total receptor concentration. For competition binding experiments, IC50 (the concentration of compound producing 50% inhibition of specific binding) was derived from fitting to a 4-parameter logistic equation. Apparent Ki values were calculated using the Cheng-Prussof equation of Ki=IC50/(1+(L)/Kd), L is the ligand concentration. Agonist stimulation and antagonist inhibition in FLIPR were fitted to sigmoidal dose response using equation Y=Bottom+(Top-Bottom)/(1+10^((LogEC50-X))), X is the logarithm of concentration of compounds. Y is the response.

[2] = molecular target: T1, human H3 receptor (Homo sapiens, UniProt Q9Y5N1); test: Radioligand competition binding assay, human H3 receptor (HT1080 cell membranes); settings: competition binding vs [3H]Nα-methylhistamine (~2 nM), membranes of HT1080 cells expressing human H3 receptor
T1 construct: Expression of this receptor was provided by utilization of the RAGE methodology; endogenous in cells; host or cells: HT1080 (human fibrosarcoma) cells, H3 expression switched on by RAGE; co-transfected with chimeric G-protein Gqαi5
Protocol: as §1
An HT1080 cell line was produced that expresses the human H3 receptor. Expression of this receptor was provided by utilization of the RAGE methodology (Harrington et al., 2001) Nature Biotechol. 19:440-5. This cell line was transfected with the chimeric G-protein Gqαi5 (Conklin et al., 1993) Nature 363:274-6 to facilitate assessment of receptor activation through the analysis of intercellular Ca^++ levels using a fluorescence assay. The HT1080 cells expressing human histamine H3 receptor and Gqαi5 were grown in alpha-modified MEM containing 10% FBS, 3 ug/ml puromycin, 7 ug/ml blasticidin, and 3.2 uM methotrexate at 37° C. in 5% CO2/95% atmosphere.
as §2, §3, §4, §5

Chain of mouse H3 receptor (P58406 whole entry): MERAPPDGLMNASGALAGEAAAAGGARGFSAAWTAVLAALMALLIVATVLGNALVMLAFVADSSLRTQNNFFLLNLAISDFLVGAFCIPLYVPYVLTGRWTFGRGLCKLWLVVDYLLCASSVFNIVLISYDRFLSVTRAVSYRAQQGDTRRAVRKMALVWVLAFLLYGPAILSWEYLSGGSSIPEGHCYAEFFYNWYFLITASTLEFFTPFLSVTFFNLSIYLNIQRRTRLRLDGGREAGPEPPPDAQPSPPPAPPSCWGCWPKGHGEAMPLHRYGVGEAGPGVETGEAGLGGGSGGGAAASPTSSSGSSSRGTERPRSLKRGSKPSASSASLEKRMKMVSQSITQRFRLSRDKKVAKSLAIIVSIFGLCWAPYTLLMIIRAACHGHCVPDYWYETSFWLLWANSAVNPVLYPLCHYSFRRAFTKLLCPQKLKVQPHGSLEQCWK
T1 sequence (Q9Y5N1 whole entry): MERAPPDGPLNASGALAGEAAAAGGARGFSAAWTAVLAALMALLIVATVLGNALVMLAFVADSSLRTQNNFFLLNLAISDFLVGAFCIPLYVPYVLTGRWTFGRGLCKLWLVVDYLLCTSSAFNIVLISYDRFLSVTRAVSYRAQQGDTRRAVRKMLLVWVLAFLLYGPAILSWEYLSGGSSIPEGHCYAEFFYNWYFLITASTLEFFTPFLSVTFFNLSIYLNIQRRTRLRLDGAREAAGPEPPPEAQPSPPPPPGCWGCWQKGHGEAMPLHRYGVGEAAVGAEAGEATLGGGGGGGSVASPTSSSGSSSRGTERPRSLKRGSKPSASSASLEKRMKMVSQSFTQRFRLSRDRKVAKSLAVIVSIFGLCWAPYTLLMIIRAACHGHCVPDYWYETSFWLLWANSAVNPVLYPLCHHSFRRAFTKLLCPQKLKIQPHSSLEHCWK

Row | SMILES | Ki [1] [nM] | Ki [2] [nM]
1 | CN(C)CCCOc1ccc(-c2c3c(nc4ccnn24)CCCC3)cc1 [Dimethyl-{3-[4-(5,6,7,8-tetrahydro-pyrazolo[5,1-b]quinazolin-9-yl)-phenoxy]-propyl}-amine] | < 500 | < 50
2 | CN(C)[C@@H]1CCN(CCc2cc3cc(-c4c5c(nc6ccnn46)CCC5)ccc3o2)C1 [(1-{2-[5-(6,7-Dihydro-5H-1,4,8a-triaza-s-indacen-8-yl)-benzofuran-2-yl]-ethyl}-pyrrolidin-3-yl)-(R)-dimethyl-amine] | < 500 | < 500
3 | O[C@H]1CCN(CCc2cc3cc(-c4c5c(nc6ccnn46)CCC5)ccc3o2)C1 [1-{2-[5-(6,7-Dihydro-5H-1,4,8a-triaza-s-indacen-8-yl)-benzofuran-2-yl]-ethyl}-pyrrolidin-3-(S)-ol] | < 500 | < 50
4 | c1cc2nc3c(c(-c4ccc5oc(CCN6CCOCC6)cc5c4)n2n1)CCC3 [8-[2-(2-Morpholin-4-yl-ethyl)-benzofuran-5-yl]-6,7-dihydro-5H-1,4,8a-triaza-s-indacene] | < 500 | < 50
5 | CC1CCCN1CCCOc1ccc(-c2c3c(nc4ccnn24)CCCC3)cc1 (stereo not drawn) [9-{4-[3-(2-Methyl-pyrrolidin-1-yl)-propoxy]-phenyl}-5,6,7,8-tetrahydro-pyrazolo[5,1-b]quinazoline] | < 50 | < 50
6 | CCN(CC)CCCOc1cccc(-c2c3c(nc4ccnn24)CCCCC3)c1 [Diethyl-{3-[3-(6,7,8,9-tetrahydro-5H-1,4,10a-triaza-cyclohepta[f]inden-10-yl)-phenoxy]-propyl}-amine] | < 5000 | –
7 | CC1CCCN1CCCOc1cccc(-c2c3c(nc4ccnn24)CCCCC3)c1 (stereo not drawn) [10-{3-[3-(2-Methyl-pyrrolidin-1-yl)-propoxy]-phenyl}-6,7,8,9-tetrahydro-5H-1,4,10a-triaza-cyclohepta[f]indene] | < 5000 | –
8 | COCCNCCCOc1ccc(-c2c3c(nc4ccnn24)CCCCC3)cc1 [(2-Methoxy-ethyl)-{3-[4-(6,7,8,9-tetrahydro-5H-1,4,10a-triaza-cyclohepta[f]inden-10-yl)-phenoxy]-propyl}-amine] | < 5000 | –

Further lines, results first:

Row | Ki [1] [nM] | Ki [2] [nM] | SMILES
9 | < 50 | < 50 | C[C@@H]1CCCN1CCCOc1ccc(-c2c3c(nc4ccnn24)CCC3)cc1Cl [8-{3-Chloro-4-[3-(2-(R)-methyl-pyrrolidin-1-yl)-propoxy]-phenyl}-6,7-dihydro-5H-1,4,8a-triaza-s-indacene]
10 | < 50 | < 50 | c1cc2nc3c(c(-c4ccc(OCCCN5CCOCC5)cc4)n2n1)CCCC3 [9-[4-(3-Morpholin-4-yl-propoxy)-phenyl]-5,6,7,8-tetrahydro-pyrazolo[5,1-b]quinazoline]
11 | < 50 | < 50 | O[C@@H]1CCN(CCCOc2ccc(-c3c4c(nc5ccnn35)CCC4)cc2)C1 [1-{3-[4-(6,7-Dihydro-5H-1,4,8a-triaza-s-indacen-8-yl)-phenoxy]-propyl}-pyrrolidin-3-(R)-ol]
12 | < 50 | < 50 | c1cc2nc3c(c(-c4ccc(OCCCN5CCCCC5)cc4)n2n1)CCCCC3 [10-[4-(3-Piperidin-1-yl-propoxy)-phenyl]-6,7,8,9-tetrahydro-5H-1,4,10a-triaza-cyclohepta[f]indene]
13 | < 50 | < 50 | O[C@H]1CCN(CCCOc2ccc(-c3c4c(nc5ccnn35)CCC4)cc2)C1 [1-{3-[4-(6,7-Dihydro-5H-1,4,8a-triaza-s-indacen-8-yl)-phenoxy]-propyl}-pyrrolidin-3-(S)-ol]
14 | < 50 | < 50 | C[C@@H]1CCCN1CCc1cc2cc(-c3c4c(nc5ccnn35)CCC4)ccc2o1 [8-{2-[2-(2-(R)-Methyl-pyrrolidin-1-yl)-ethyl]-benzofuran-5-yl}-6,7-dihydro-5H-1,4,8a-triaza-s-indacene]
15 | < 50 | < 50 | CC1CCCN1CCCOc1ccc(-c2c3c(nc4ccnn24)CCC3)cc1 (stereo not drawn) [8-{4-[3-(2-Methyl-pyrrolidin-1-yl)-propoxy]-phenyl}-6,7-dihydro-5H-1,4,8a-triaza-s-indacene]
